The supplement of paper PMC9938120

Legend:
Assay in all cases: drug sensitivity score (DSS3, normalised partial AUC of % inhibition dose-response) (DSS (score)); higher = more sensitive (stronger inhibition of viability); extreme values may be limits of the assay
FMOC14 = patient-derived high-grade serous ovarian cancer cells; conditions: 72 h; library: FO5A; assay format: 2D, 384-well, CellTiter-Glo
How it was run: (§1)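 The drug sensitivity score is calculated as a partial area under the percent-inhibition dose-response curve, divided by the log of the upper asymptote; higher scores mean more sensitive. For this score, early-passage (under 10) patient-derived ovarian cancer cells were exposed on 384-well flat clear-bottom plates to compounds at five concentrations across a 10,000-fold range for 72 h at 37 °C, 5% CO2. Viability was read with CellTiter-Glo and processed in Breeze.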

FMOC02_3 = patient-derived low-grade serous ovarian cancer cells; conditions: 72 h; library: FO5A; assay format: 2D, 384-well, CellTiter-Glo
How it was run: as §1

FMOC03 = patient-derived mucinous ovarian cancer cells; conditions: 72 h; library: FO5A; assay format: 2D, 384-well, CellTiter-Glo
How it was run: as §1

FMOC09 = patient-derived high-grade serous ovarian cancer cells; conditions: 72 h; library: FO5A; assay format: 2D, 384-well, CellTiter-Glo
How it was run: as §1

FMOC22 = patient-derived mucinous ovarian cancer cells; conditions: 72 h; library: FO5A; assay format: 2D, 384-well, CellTiter-Glo
How it was run: as §1

FMOC02_2 = patient-derived low-grade serous ovarian cancer cells; conditions: 72 h; library: FO5A; assay format: 2D, 384-well, CellTiter-Glo
How it was run: as §1

FMOC06 = patient-derived mucinous ovarian cancer cells; conditions: 72 h; library: FO5A; assay format: 2D, 384-well, CellTiter-Glo
How it was run: as §1

FMOC25_2 = patient-derived low-grade serous ovarian cancer cells; conditions: 72 h; library: FO5A; assay format: 2D, 384-well, CellTiter-Glo
How it was run: as §1

FMOC25_1 = patient-derived low-grade serous ovarian cancer cells; conditions: 72 h; library: FO4B; assay format: 2D, 384-well, CellTiter-Glo
How it was run: as §1

FMOC24 = patient-derived high-grade serous ovarian cancer cells; conditions: 72 h; library: FO5A; assay format: 2D, 384-well, CellTiter-Glo
How it was run: as §1

Row | Compound | drug sensitivity score (FMOC14) | drug sensitivity score (FMOC02_3) | drug sensitivity score (FMOC03) | drug sensitivity score (FMOC09) | drug sensitivity score (FMOC22) | drug sensitivity score (FMOC02_2) | drug sensitivity score (FMOC06) | drug sensitivity score (FMOC25_2) | drug sensitivity score (FMOC25_1) | drug sensitivity score (FMOC24)
1 | Cc1nc(=O)c2cc(CN(C)c3ccc(C(=O)N[C@@H](CCC(=O)O)C(=O)O)s3)ccc2[nH]1 [Raltitrexed] | 0.3 | 0 | 1.5 | 0 | 3.8 | 0 | 0 | 1.3 | 0.1 | 0.05
2 | NC(=O)Nc1cc(-c2cccc(F)c2)sc1C(=O)N[C@H]1CCCNC1 [AZD7762] | 6.2 | 6.1 | 1.5 | 6.3 | 3.3 | 3.5 | 3.6 | 4.5 | 3.3 | 9.15
3 | CCOc1cc2ncc(C#N)c(Nc3ccc(OCc4ccccn4)c(Cl)c3)c2cc1NC(=O)/C=C/CN(C)C [Neratinib] | 2.5 | 18.3 | 12.3 | 9.8 | 2.3 | 14.1 | 2.2 | 16.5 | 8.7 | 1.1
4 | CN1CCN(CCOc2cc(OC3CCOCC3)c3c(Nc4c(Cl)ccc5c4OCO5)ncnc3c2)CC1 [Saracatinib] | 5 | 16.7 | 9.4 | 11 | 0.6 | 15.6 | 4.6 | 10 | 5.3 | 4.7
5 | CC(=O)O[C@H]1C(=O)[C@@]2(C)[C@H]([C@H](OC(=O)c3ccccc3)[C@]3(O)C[C@H](OC(=O)[C@H](O)[C@@H](NC(=O)c4ccccc4)c4ccccc4)C(C)=C1C3(C)C)[C@]1(OC(C)=O)CO[C@@H]1C[C@@H]2O [Paclitaxel] | 0.4 | 17 | 11.9 | 13.6 | 12.5 | 8.7 | 10.1 | 16.7 | 6.7 | 0.1
6 | CN(CC(=O)N(Cc1ccc(C2CCCCC2)cc1)c1ccc(C(=O)O)cc1)S(=O)(=O)c1c(F)c(F)c(F)c(F)c1F [SH-4-54] | 5.9 | 8.8 | 6.2 | 10.3 | 5.3 | 9.3 | 9 | 5.5 | 6.9 | 6.2
7 | C#Cc1cccc(Nc2ncnc3cc4c(cc23)OCCOCCOCCO4)c1 [Icotinib] | 2.1 | 10.7 | 9.7 | 8 | 1.8 | 11.2 | 3.4 | 7.1 | 9 | 1
8 | O=C1c2c(O)ccc(O)c2C(=O)c2c(NCCNCCO)ccc(NCCNCCO)c21 [Mitoxantrone] | 3.2 | 5.9 | 2.7 | 8.8 | 6 | 4 | 1.9 | 7 | 0.3 | 3.45
9 | CCn1cc(-c2ccnc3[nH]c(-c4cccc(CN(C)C)c4)cc23)c(-c2ccc(NC(=O)N(C)C)cc2)n1 | 0 | 2.6 | 0 | 0 | 0.1 | 0 | 0 | 2.2 | 0 | 0.55
10 | CN(C)C/C=C/C(=O)Nc1cc2c(Nc3ccc(F)c(Cl)c3)ncnc2cc1O[C@H]1CCOC1 [Afatinib] | 7.7 | 18.2 | 17 | 14.4 | 0.3 | 17.5 | 4.3 | 16.9 | 10.4 | 2.75
11 | Cn1ncc(Cl)c1-c1cc(C(=O)N[C@H](CN)Cc2ccc(F)c(F)c2)oc1Cl [Uprosertib] | 3.5 | 13.7 | 0 | 0 | 0.7 | 13.1 | 4.3 | 4.1 | 3.5 | 1.35
12 | CN(Cc1cnc2nc(N)nc(N)c2n1)c1ccc(C(=O)N[C@@H](CCC(=O)O)C(=O)O)cc1 [Methotrexate] | 0 | 0 | 0 | 0 | 0 | 0 | 0 | 0.2 | 0 | 0
13 | CO[C@@H](C(=O)N1Cc2[nH]nc(NC(=O)c3ccc(N4CCN(C)CC4)cc3)c2C1)c1ccccc1 [Danusertib] | 1.4 | 10.1 | 4.7 | 8.7 | 0 | 5.7 | 4.7 | 8 | 3.1 | 4.3
14 | Cn1cc(CNCC2CCN(c3ncc(C(=O)NO)cn3)CC2)c2ccccc21 [Quisinostat] | 10.7 | 10.8 | 10.3 | 4.8 | 8.1 | 10.9 | 9.4 | 11.2 | 9.9 | 13.6
15 | CCNC(=O)c1noc(-c2cc(C(C)C)c(O)cc2O)c1-c1ccc(CN2CCOCC2)cc1 [Luminespib] | 13 | 23 | 10.8 | 16.9 | 13.2 | 19.8 | 3.2 | 23.6 | 10.9 | 9.4
16 | O=C(O)C1(C(=O)O)CCC1.[NH2-].[NH2-].[Pt+2] [Carboplatin] | 4.9 | 5 | 0.6 | 9.1 | 2.8 | 4.9 | 1.3 | 2.8 | 1.3 | 8.3

Row | Compound | drug sensitivity score (FMOC14) | drug sensitivity score (FMOC02_3) | drug sensitivity score (FMOC03) | drug sensitivity score (FMOC09) | drug sensitivity score (FMOC22) | drug sensitivity score (FMOC02_2) | drug sensitivity score (FMOC06) | drug sensitivity score (FMOC25_2) | drug sensitivity score (FMOC25_1) | drug sensitivity score (FMOC24)
17 | COc1cc(OC)c(/C=C/S(=O)(=O)Cc2ccc(OC)c(NCC(=O)O)c2)c(OC)c1 [Rigosertib] | 0.1 | 20.5 | 18.2 | 15.4 | 16.1 | 16.4 | 14.3 | 12 | 14.3 | 6.5
18 | COc1cc(Nc2c(C#N)cnc3cc(OCCCN4CCN(C)CC4)c(OC)cc23)c(Cl)cc1Cl [Bosutinib] | 6.6 | 14.1 | 9.3 | 9.2 | 6.4 | 14.6 | 5.2 | 13.2 | 3.7 | 7.55
19 | Nc1ncnc2c1nc(Cl)n2[C@@H]1O[C@H](CO)[C@@H](O)[C@H]1O [8-chloro-adenosine] | 3.3 | 18.2 | 2.4 | 5.5 | 3.2 | 19.7 | 4.1 | 15.2 | 11.4 | 6
20 | C1=N/C2=N/c3ccc(OCCN4CCCC4)c(c3)COC/C=C/COCc3cccc(c3)C(=C1)N2 [Pacritinib] | 5.2 | 15.2 | 6.7 | 5.5 | 6.2 | 10.1 | 7.6 | 15.2 | 7.8 | 7.95
21 | CC(C)c1cc(C(=O)N2Cc3ccc(CN4CCN(C)CC4)cc3C2)c(O)cc1O [Onalespib] | 9 | 14 | 12.2 | 9 | 8.1 | 12.6 | 6 | 15.4 | 12 | 5.45
22 | Cc1nc(-c2cn3c(n2)-c2ccc(-c4cnn(C(C)(C)C(N)=O)c4)cc2OCC3)n(C(C)C)n1 [Taselisib] | 4.3 | 12.2 | 4.5 | 10.1 | 2.9 | 12.7 | 9.6 | 8.6 | 8.2 | 0.85
23 | COc1ncc(-c2ccc3nccc(-c4ccnnc4)c3c2)cc1NS(=O)(=O)c1ccc(F)cc1F [Omipalisib] | 15.2 | 23.9 | 18.4 | 19.1 | 13.9 | 24.2 | 20.6 | 22.1 | 24.2 | 8.5
24 | COc1cccc(OCCCN)c1-c1cc(Nc2cnc(C#N)cn2)n[nH]1 [Prexasertib] | 22.6 | 18.6 | 11.8 | 19.5 | 19.6 | 15.1 | 12.6 | 19.1 | 15.3 | 24.7
25 | CN1CCC(CNc2ccc3ncc(-c4cccc(OC(F)(F)F)c4)n3n2)CC1 [SGI-1776] | 5 | 8.8 | 6.1 | 4.5 | 5.9 | 9.2 | 6.5 | 7.4 | 7.4 | 8.05
26 | O=C(CCCCCCC(=O)Nc1ccccc1)NO [Vorinostat] | 6.8 | 7.7 | 5.5 | 3.1 | 4.6 | 9.8 | 7.4 | 8.5 | 5.5 | 10.1
27 | Cc1c2oc3c(C)ccc(C(=O)N[C@@H]4C(=O)N[C@H](C(C)C)C(=O)N5CCC[C@H]5C(=O)N(C)CC(=O)N(C)[C@@H](C(C)C)C(=O)O[C@@H]4C)c3nc-2c(C(=O)N[C@@H]2C(=O)N[C@H](C(C)C)C(=O)N3CCC[C@H]3C(=O)N(C)CC(=O)N(C)[C@@H](C(C)C)C(=O)O[C@@H]2C)c(N)c1=O [Dactinomycin] | 21.7 | 27.2 | 21.7 | 16.7 | 21.5 | 22.1 | 22.9 | 28.8 | 23.3 | 23.2
28 | CC[C@H](NC(=O)[C@H](C)NC)C(=O)N1C[C@@H](O)C[C@H]1Cc1c(-c2[nH]c3cc(F)ccc3c2C[C@@H]2C[C@H](O)CN2C(=O)[C@H](CC)NC(=O)[C@H](C)NC)[nH]c2cc(F)ccc12 [Birinapant] | 4.5 | 0 | 0 | 0 | 0 | 0 | 3.9 | 8.3 | 1.1 | 21.2
29 | COc1cc([C@@H]2c3cc4c(cc3[C@@H](O[C@@H]3O[C@@H]5CO[C@@H](C)O[C@H]5[C@H](O)[C@H]3O)[C@H]3COC(=O)[C@H]23)OCO4)cc(OC)c1O [Etoposide] | 1.7 | 2.7 | 1.7 | 5.6 | 6.1 | 1.4 | 3.5 | 2.9 | 2.8 | 1.9
30 | CO[C@H]1C[C@@H]2CC[C@@H](C)[C@@](O)(O2)C(=O)C(=O)N2CCCC[C@H]2C(=O)O[C@H]([C@H](C)C[C@@H]2CC[C@@H](OP(C)(C)=O)[C@H](OC)C2)CC(=O)[C@H](C)/C=C(\C)[C@@H](O)[C@@H](OC)C(=O)[C@H](C)C[C@H](C)/C=C/C=C/C=C/1C [Ridaforolimus] | 3.4 | 13.8 | 4.5 | 4.2 | 9.3 | 11.1 | 5.7 | 11.8 | 10.3 | 0
31 | O=c1[nH]c(=O)n([C@H]2C[C@H](O)[C@@H](CO)O2)cc1F [Floxuridine] | 0.8 | 2.3 | 4.1 | 2.2 | 9.3 | 2.6 | 0.8 | 3.8 | 0.5 | 0
32 | CC(C)NC[C@@H](C(=O)N1CCN(c2ncnc3c2[C@H](C)C[C@H]3O)CC1)c1ccc(Cl)cc1 [Ipatasertib] | 2.8 | 14.3 | 1 | 0.1 | 2.1 | 7.8 | 4 | 7.4 | 7 | 3
